Results on 1 sequence are retold here after patent publication US20240301408A1, “MICRORNA 195 COMPOSITIONS AND METHODS FOR TREATING COGNITIVE IMPAIRMENT” (UNITED STATES GOVERNMENT AS REPRESENTED BY THE DEPARTMENT …, priority 2021, published 2024).

Data set [1] concerns BV2 cells. Briefly: LPS-induced gene expression (pdcd4, smad7, il10a) in BV2 microglia with miR-195-5p over-expression. The class given is cell-based. How it is done: For example, LPS (at 0.2 μg/ml) treatment for overnight in BV2 cells leads to increased expression of pdcd4 and smad7 (FIG. 13A) and reduced expression of il10ra (FIG. 13C). […] Over-expression of miR-195-5p also attenuates LPS-induced pro-inflammatory cytokine release (IL-6 and TNFα; FIG. 13B). […] For these experiments, purified exosomes were derived from human APOE3/3 and 4/4 iPSC-derived astrocytes w/wo miR-195 over-expression detected by an exosome marker, ALIX. Fluorescence labeled exosomes were taken up by IBA1+ microglia cells.
Over-expression of miR-195-5p in microglia inhibits LPS-induced proinflammatory responses and augments anti-inflammatory responses. […] However, over-expression of miR-195-5p reduces expression levels of pdcd4 and smad7 and increases il10a expression in the presence of LPS. Over-expression of miR-195-5p also attenuates LPS-induced pro-inflammatory cytokine release (IL-6 and TNFα; FIG. 17B).

Data set [2] has as its system dynamin 1 (dyn1). Nature of the data set: dynamin 1 protein levels in cultured neurons after AAV2 miRNA over-expression. The following applies: neurons over-expressing miRNA; N=4/group. It counts as cell-based, mouse. How it is done:
Mouse Neuronal and human iPSC culture. Primary cortical neurons were cultured (Zhu L et al., Proc Natl Acad Sci USA 2015, and Zhu L et al., J Biol Chem 2013) before being fixed and stained for confocal microscopy analysis (Zeiss LSM) (Berg I et al., Nat Protoc 2010). In some conditions, bovine serum albumin (BSA) or receptor-associated protein (RAP) was included in the cultured media (N=3/group). Alternatively, cultured neurons were transfected with adeno-associated virus 2 (AAV2)-containing miR-195-5p or miR-374 or scramble controls for 5 days before subjected to analysis. […]
Brain and neuronal sample preparation and biochemical analysis. […] Levels of Aβ42, Aβ40, pTau, Tau and ApoE were determined using high-sensitive ELISA kits. […]
Statistical analysis. […] Levels of miR-195-5p and miR-374 were normalized to U6 and RNU6B (internal controls) while synj1 mRNA normalized to GAPDH and 18s, and then expressed as Log2fold of changes when compared to controls. Levels of synj1, dyn1, pTau, Tau, and holoAPP were normalized to β-actin levels and expressed as a percentage of the control. Absolute Aβ42, Aβ40, pTau, Tau, and ApoE concentrations were quantitatively determined by ELISA and expressed as a percentage of the control. […] Pearson correlation coefficients were calculated to determine the linear relationship between the two variables. […]

In the case of “UAGCAGCACAGAAAUAUUGGC (chemistry not given here) [miR-195-5p, over-expressed via AAV2-containing miR-195-5p from ABM Inc]”, the “expression levels of pdcd4 and smad7” value in data set [1] (LPS overnight) was “dramatically reduces”. For the same sequence, the il10a expression result in data set [1] (in the presence of LPS) is reported as “increases”. Moreover, the dyn protein levels in data set [2] was 97.7 % of controls.
